In assay [1] the target is MAP kinase-activated protein kinase 2 (Homo sapiens, UniProt P49137).
Assay [2] addresses MAP/microtubule affinity-regulating kinase 3 (Homo sapiens, UniProt P27448).
The target of assay [3] is T1, Serine/threonine-protein kinase ULK1 (Homo sapiens, UniProt O75385).
T1 sequence (O75385 whole entry): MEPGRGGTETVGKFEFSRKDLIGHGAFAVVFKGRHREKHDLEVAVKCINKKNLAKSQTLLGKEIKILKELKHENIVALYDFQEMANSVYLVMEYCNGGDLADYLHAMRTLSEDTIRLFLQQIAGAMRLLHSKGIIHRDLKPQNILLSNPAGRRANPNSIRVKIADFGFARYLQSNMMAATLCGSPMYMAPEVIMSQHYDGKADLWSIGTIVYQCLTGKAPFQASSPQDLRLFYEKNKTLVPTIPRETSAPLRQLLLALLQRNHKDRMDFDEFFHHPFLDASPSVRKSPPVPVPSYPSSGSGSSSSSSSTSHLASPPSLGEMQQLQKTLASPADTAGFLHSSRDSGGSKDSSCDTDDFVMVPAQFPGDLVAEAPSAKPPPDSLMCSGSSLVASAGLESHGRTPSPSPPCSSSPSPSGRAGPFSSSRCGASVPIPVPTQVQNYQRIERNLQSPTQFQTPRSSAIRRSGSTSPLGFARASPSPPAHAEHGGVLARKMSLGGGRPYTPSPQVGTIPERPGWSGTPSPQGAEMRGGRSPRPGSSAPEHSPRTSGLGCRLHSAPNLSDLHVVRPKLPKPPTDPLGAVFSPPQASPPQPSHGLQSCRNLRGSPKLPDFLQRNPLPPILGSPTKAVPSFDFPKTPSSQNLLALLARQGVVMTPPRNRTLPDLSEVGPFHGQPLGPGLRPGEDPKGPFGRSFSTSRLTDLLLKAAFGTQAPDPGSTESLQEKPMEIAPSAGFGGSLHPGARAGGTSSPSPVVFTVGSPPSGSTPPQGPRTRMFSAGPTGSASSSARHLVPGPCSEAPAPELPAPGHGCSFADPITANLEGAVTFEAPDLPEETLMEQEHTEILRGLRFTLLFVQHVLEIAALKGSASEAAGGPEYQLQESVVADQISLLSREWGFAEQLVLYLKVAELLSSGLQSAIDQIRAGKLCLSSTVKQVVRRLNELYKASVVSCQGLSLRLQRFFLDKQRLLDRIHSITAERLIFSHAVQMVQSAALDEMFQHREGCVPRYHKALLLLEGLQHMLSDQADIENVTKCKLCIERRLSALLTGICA

Assay [4] concerns the target T2, RNA cytidine acetyltransferase (Homo sapiens, UniProt Q9H0A0).
T2 sequence (Q9H0A0 whole entry): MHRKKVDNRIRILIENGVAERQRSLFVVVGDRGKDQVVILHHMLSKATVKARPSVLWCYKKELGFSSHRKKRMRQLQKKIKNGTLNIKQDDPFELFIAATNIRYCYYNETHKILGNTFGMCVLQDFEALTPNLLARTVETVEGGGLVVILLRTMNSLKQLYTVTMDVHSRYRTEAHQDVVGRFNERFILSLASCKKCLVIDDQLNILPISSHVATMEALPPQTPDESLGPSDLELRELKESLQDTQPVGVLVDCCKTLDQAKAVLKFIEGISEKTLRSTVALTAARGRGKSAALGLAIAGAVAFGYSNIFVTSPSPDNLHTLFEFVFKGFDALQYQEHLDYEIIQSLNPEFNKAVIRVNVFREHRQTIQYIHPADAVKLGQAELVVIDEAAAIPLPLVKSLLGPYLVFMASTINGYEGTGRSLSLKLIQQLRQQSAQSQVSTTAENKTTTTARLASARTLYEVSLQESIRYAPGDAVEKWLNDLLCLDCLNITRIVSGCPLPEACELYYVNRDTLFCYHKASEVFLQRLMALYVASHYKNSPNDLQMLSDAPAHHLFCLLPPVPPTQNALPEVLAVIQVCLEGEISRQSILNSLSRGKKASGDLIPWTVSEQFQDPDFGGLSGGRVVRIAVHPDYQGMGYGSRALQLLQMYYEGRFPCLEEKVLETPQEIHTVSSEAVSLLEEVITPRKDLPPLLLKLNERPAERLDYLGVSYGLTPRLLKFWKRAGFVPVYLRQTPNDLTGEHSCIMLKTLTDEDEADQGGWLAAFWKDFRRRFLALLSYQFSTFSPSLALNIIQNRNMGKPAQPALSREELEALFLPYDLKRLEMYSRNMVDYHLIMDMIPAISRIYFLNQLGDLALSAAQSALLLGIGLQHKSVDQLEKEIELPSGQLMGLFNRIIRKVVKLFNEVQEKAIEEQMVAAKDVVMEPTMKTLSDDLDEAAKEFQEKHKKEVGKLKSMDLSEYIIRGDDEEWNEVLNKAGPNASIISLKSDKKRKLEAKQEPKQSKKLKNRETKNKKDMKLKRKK

Assay [5] deals with Cyclin-dependent kinase 12 (Homo sapiens, UniProt Q9NYV4).
Cyclin-dependent kinase 12, sequence (Q9NYV4 whole entry): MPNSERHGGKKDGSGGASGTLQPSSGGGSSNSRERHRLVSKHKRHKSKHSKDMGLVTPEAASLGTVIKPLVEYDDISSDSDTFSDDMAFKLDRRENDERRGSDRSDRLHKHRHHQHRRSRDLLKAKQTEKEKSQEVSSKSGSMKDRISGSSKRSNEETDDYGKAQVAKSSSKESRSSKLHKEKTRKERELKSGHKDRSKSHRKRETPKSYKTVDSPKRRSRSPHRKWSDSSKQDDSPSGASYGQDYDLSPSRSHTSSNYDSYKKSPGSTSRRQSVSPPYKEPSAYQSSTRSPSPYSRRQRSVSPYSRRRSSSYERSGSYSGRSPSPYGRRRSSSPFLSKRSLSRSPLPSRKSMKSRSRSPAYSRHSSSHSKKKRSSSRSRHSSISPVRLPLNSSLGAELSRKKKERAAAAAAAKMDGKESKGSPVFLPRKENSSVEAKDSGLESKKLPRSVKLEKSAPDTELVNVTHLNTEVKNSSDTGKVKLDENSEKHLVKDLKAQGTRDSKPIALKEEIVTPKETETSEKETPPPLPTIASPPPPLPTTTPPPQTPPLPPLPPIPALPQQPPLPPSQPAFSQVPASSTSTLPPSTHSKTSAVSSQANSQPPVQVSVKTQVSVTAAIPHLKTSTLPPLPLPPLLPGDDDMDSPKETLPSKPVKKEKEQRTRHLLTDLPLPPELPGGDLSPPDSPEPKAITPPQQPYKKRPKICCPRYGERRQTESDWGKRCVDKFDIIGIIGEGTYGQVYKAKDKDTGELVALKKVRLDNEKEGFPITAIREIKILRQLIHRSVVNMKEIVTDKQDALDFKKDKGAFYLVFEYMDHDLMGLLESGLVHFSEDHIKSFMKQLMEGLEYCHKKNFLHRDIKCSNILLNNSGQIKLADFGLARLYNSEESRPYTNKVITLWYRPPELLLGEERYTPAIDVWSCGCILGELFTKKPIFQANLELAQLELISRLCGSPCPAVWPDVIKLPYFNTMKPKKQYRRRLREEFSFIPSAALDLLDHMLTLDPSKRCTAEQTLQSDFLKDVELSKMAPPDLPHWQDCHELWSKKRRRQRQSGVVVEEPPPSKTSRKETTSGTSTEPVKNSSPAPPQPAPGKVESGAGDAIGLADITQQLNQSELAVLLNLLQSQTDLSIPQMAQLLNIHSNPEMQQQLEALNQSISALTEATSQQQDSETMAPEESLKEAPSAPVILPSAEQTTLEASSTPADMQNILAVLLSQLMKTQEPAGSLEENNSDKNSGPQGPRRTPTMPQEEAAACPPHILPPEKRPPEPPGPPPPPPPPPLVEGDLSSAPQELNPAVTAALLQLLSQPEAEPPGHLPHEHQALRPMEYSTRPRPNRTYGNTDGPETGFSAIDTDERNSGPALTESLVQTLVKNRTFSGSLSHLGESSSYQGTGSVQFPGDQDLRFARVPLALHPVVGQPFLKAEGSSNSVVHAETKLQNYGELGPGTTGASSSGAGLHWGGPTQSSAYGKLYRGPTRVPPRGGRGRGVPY
Assay [6] concerns the target Receptor-interacting serine/threonine-protein kinase 2 (Homo sapiens, UniProt O43353).

SMILES strings stand for the structures. The source made the active and inactive calls. For most assays here, no stated cut-off is given here; in the data, actives have a measured Kd and inactives only a lower limit.

Usually Kd stands for the free concentration of one partner at which half of the binding sites on the other are occupied at equilibrium, for simple one-to-one binding.

MAP/microtubule affinity-regulating kinase 3, sequence (P27448 whole entry): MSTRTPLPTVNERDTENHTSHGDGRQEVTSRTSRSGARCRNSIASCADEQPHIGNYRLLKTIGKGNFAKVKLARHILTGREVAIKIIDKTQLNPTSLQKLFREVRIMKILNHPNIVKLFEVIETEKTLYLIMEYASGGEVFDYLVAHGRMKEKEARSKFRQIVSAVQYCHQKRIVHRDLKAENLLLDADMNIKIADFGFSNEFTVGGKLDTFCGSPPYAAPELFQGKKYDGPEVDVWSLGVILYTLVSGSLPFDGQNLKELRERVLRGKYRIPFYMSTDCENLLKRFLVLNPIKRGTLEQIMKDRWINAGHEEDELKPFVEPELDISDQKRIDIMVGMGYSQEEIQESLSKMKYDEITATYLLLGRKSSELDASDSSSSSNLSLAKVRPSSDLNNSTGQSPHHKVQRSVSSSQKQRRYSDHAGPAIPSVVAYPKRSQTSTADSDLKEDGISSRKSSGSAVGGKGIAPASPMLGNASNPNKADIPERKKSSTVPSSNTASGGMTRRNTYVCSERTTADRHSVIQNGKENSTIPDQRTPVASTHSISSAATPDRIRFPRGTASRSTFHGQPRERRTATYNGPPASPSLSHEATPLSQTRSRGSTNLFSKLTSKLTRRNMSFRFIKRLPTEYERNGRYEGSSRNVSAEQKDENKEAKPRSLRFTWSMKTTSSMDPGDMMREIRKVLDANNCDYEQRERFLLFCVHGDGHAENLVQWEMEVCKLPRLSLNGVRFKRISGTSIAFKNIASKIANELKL
MAP kinase-activated protein kinase 2, sequence (P49137 whole entry): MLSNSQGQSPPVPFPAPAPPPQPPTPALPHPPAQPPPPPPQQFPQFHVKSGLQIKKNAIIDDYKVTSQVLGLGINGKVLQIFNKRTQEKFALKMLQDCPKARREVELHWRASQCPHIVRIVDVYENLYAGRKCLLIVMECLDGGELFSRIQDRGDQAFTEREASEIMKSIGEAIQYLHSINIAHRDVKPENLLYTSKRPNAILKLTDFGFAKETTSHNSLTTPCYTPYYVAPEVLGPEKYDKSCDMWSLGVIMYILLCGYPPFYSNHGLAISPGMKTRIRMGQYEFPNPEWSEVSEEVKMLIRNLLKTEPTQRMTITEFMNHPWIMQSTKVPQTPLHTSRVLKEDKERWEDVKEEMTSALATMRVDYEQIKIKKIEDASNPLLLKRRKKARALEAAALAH
Receptor-interacting serine/threonine-protein kinase 2, sequence (O43353 whole entry): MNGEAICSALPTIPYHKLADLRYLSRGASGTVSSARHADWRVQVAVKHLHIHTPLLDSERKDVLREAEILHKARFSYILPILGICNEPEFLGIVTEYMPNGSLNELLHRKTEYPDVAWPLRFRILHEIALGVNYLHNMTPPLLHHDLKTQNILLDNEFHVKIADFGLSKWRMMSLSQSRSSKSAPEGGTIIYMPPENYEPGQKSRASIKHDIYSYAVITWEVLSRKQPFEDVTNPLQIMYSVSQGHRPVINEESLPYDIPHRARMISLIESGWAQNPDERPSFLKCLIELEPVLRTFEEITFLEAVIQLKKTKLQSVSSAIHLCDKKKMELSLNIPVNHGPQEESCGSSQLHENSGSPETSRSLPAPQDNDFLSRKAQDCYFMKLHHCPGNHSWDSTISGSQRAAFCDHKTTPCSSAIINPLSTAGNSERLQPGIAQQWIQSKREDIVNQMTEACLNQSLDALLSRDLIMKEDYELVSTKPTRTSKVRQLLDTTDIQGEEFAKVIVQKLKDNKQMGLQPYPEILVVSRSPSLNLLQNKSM

As to `Cc1c(NC(=O)OC[C@@H]2COCCN2)cn2ncnc(Nc3ccc4c(cnn4Cc4cccc(F)c4)c3)c12` [AC-480], the Kd in assay [1], in assay [2], in assay [3], in assay [4], in assay [5] and in assay [6] was > 30 µM (inactive) each time.

As for `O[C@H]1CC[C@H](Nc2ncc3nc(Nc4c(F)cc(F)cc4F)n([C@H]4CCOC4)c3n2)CC1` [TANZISERTIB], the Kd in assay [1] was 0.934 µM (active); in assay [2], > 30 µM (inactive); in assay [3] it was > 30 µM (inactive); in assay [4], > 30 µM (inactive); in assay [5], > 30 µM (inactive); in assay [6] it was > 30 µM (inactive).
